According to ChEMBL document CHEMBL1649217, “Emergence of Klebsiella pneumoniae ST258 with KPC-2 in Poland” (2009):
Values after ≈ are worked out from the molar mass of the structure shown.

Key:
Type in all cases: functional
Escherichia coli [1] = experiment: Antimicrobial activity against rifampicin-resistant Escherichia coli A15 by Etest
Escherichia coli [2] = experiment: Antimicrobial activity against rifampicin-resistant Escherichia coli A15 transconjugant expressing beta-lactamase KPC-2/TEM-1 by Etest
Klebsiella pneumoniae [3] = experiment: Antimicrobial activity against Klebsiella pneumoniae isolate 2641/08 obtained from urine of patient with ischemic cardiomyopathy and several comorbidities by Etest
Escherichia coli [4] = experiment: Antimicrobial activity against rifampicin-resistant Escherichia coli A15 transconjugant expressing beta-lactamase SHV-12 by Etest
Escherichia coli [5] = experiment: Antimicrobial activity against rifampicin-resistant Escherichia coli A15 transconjugant expressing beta-lactamase KPC-2/TEM-1 by Etest in presence of beta-lactamase inhibitor clavulanic acid
Escherichia coli [6] = experiment: Antimicrobial activity against rifampicin-resistant Escherichia coli A15 transconjugant expressing beta-lactamase SHV-12 by Etest in presence of beta-lactamase inhibitor clavulanic acid
Klebsiella pneumoniae [7] = experiment: Antimicrobial activity against Klebsiella pneumoniae isolate 2641/08 obtained from urine of patient with ischemic cardiomyopathy and several comorbidities by Etest in presence of beta-lactamase inhibitor clavulanic acid; conditions: isolate 2641/08, Urine
Escherichia coli [8] = experiment: Antimicrobial activity against rifampicin-resistant Escherichia coli A15 by Etest in presence of beta-lactamase inhibitor clavulanic acid
Klebsiella pneumoniae [9] = experiment: Antimicrobial activity against Klebsiella pneumoniae isolate 2337/08 obtained from patient with ischemic cardiomyopathy and several comorbidities
Escherichia coli [10] = experiment: Antimicrobial activity against rifampicin-resistant Escherichia coli A15 by Etest in presence of beta-lactamase inhibitor Tazobactam
Escherichia coli [11] = experiment: Antimicrobial activity against rifampicin-resistant Escherichia coli A15 transconjugant expressing beta-lactamase SHV-12 by Etest in presence of beta-lactamase inhibitor Tazobactam
Escherichia coli [12] = experiment: Antimicrobial activity against rifampicin-resistant Escherichia coli A15 transconjugant expressing beta-lactamase KPC-2/TEM-1 by Etest in presence of beta-lactamase inhibitor Tazobactam
Klebsiella pneumoniae [13] = experiment: Antimicrobial activity against Klebsiella pneumoniae isolate 2641/08 obtained from urine of patient with ischemic cardiomyopathy and several comorbidities by Etest in presence of beta-lactamase inhibitor Tazobactam; conditions: isolate 2641/08, Urine

Row | Compound | MIC (Escherichia coli [1]) | MIC (Escherichia coli [2]) | MIC (Klebsiella pneumoniae [3]; isolate 2641/08, Urine) | MIC (Escherichia coli [4]) | further results
1 | CO/N=C(\C(=O)N[C@@H]1C(=O)N2C(C(=O)[O-])=C(C[N+]3(C)CCCC3)CS[C@H]12)c1csc(N)n1 | 0.047 µg/mL (≈ 0.0978 µM) | 1.5 µg/mL (≈ 3.12 µM) | > 32 µg/mL | 0.5 µg/mL (≈ 1.04 µM) | 
2 | NCC[C@H](O)C(=O)N[C@@H]1C[C@H](N)[C@@H](O[C@H]2O[C@H](CN)[C@@H](O)[C@H](O)[C@H]2O)[C@H](O)[C@H]1O[C@H]1O[C@H](CO)[C@@H](O)[C@H](N)[C@H]1O [AMIKACIN] | 1 µg/mL (≈ 1.71 µM) | 1.5 µg/mL (≈ 2.56 µM) | 12 µg/mL (≈ 20.5 µM) | 1 µg/mL (≈ 1.71 µM) | 
3 | CC1(C)S[C@@H]2[C@H](NC(=O)[C@H](N)c3ccc(O)cc3)C(=O)N2[C@H]1C(=O)O [AMOXICILLIN] |  |  |  |  | MIC (Escherichia coli [5]): 24 µg/mL; MIC (Escherichia coli [6]): 4 µg/mL; MIC (Klebsiella pneumoniae [7]): > 256 µg/mL; MIC (Escherichia coli [8]): 4 µg/mL
4 | CC1(C)S[C@@H]2[C@H](NC(=O)[C@H](N)c3ccccc3)C(=O)N2[C@H]1C(=O)O [AMPICILLIN] | 3 µg/mL (≈ 8.59 µM) | > 256 µg/mL | > 256 µg/mL | > 256 µg/mL | 
5 | CO/N=C(\C(=O)N[C@@H]1C(=O)N2C(C(=O)O)=C(COC(C)=O)CS[C@H]12)c1csc(N)n1 [CEFOTAXIME] | 0.047 µg/mL (≈ 0.103 µM) | 2 µg/mL (≈ 4.39 µM) | 128 µg/mL (≈ 281 µM) | 1.5 µg/mL (≈ 3.29 µM) | 
6 | CC(C)(O/N=C(\C(=O)N[C@@H]1C(=O)N2C(C(=O)[O-])=C(C[n+]3ccccc3)CS[C@H]12)c1csc(N)n1)C(=O)O [CEFTAZIDIME] | 0.25 µg/mL (≈ 0.457 µM) | 3 µg/mL (≈ 5.49 µM) | > 256 µg/mL | 16 µg/mL (≈ 29.3 µM) | 
7 | O=C(O)c1cn(C2CC2)c2cc(N3CCNCC3)c(F)cc2c1=O [CIPROFLOXACIN] |  |  | > 32 µg/mL |  | 
8 | C[C@@H](O)[C@H]1C(=O)N2C(C(=O)O)=C(SCCNC=N)C[C@H]12 [IMIPENEM ANHYDROUS] | 0.25 µg/mL (≈ 0.835 µM) | 3 µg/mL (≈ 10 µM) | 2 µg/mL (≈ 6.68 µM) | 0.25 µg/mL (≈ 0.835 µM) | MIC (Klebsiella pneumoniae [9]): 2 µg/mL (≈ 6.68 µM)
9 | C[C@@H](O)[C@H]1C(=O)N2C(C(=O)O)=C(S[C@@H]3CN[C@H](C(=O)N(C)C)C3)[C@H](C)[C@H]12 [MEROPENEM] | 0.032 µg/mL (≈ 0.0834 µM) | 0.75 µg/mL (≈ 1.96 µM) | 3 µg/mL (≈ 7.82 µM) | 0.047 µg/mL (≈ 0.123 µM) | 
10 | CCN1CCN(C(=O)N[C@@H](C(=O)N[C@@H]2C(=O)N3[C@@H]2SC(C)(C)[C@@H]3C(=O)O)c2ccccc2)C(=O)C1=O [PIPERACILLIN] | 1.5 µg/mL (≈ 2.9 µM) | 96 µg/mL (≈ 185 µM) | > 256 µg/mL | 32 µg/mL (≈ 61.8 µM) | MIC (Escherichia coli [10]): 1 µg/mL; MIC (Escherichia coli [11]): 1 µg/mL; MIC (Escherichia coli [12]): 48 µg/mL; MIC (Klebsiella pneumoniae [13]): > 256 µg/mL
11 | CN(C)[C@@H]1C(O)=C(C(N)=O)C(=O)[C@@]2(O)C(O)=C3C(=O)c4c(O)cccc4[C@@](C)(O)[C@H]3C[C@@H]12 [TETRACYCLINE] | 2 µg/mL (≈ 4.5 µM) | 2 µg/mL (≈ 4.5 µM) | 32 µg/mL (≈ 72 µM) | 1.5 µg/mL (≈ 3.38 µM) | 
12 | CN(C)c1cc(NC(=O)CNC(C)(C)C)c(O)c2c1C[C@H]1C[C@H]3[C@H](N(C)C)C(O)=C(C(N)=O)C(=O)[C@@]3(O)C(O)=C1C2=O [TIGECYCLINE] | 0.38 µg/mL (≈ 0.649 µM) | 0.38 µg/mL (≈ 0.649 µM) | 3 µg/mL (≈ 5.12 µM) | 0.38 µg/mL (≈ 0.649 µM) | 
13 | COLISTIN | 0.25 µg/mL | 0.25 µg/mL |  | 0.19 µg/mL | MIC (Klebsiella pneumoniae [3]): 0.38 µg/mL
14 | GENTAMICIN | 0.19 µg/mL | 0.25 µg/mL |  | 0.19 µg/mL | MIC (Klebsiella pneumoniae [3]): 1 µg/mL
